How the values were obtained:
P2X4 [1] = target: T1, P2X4 (Homo sapiens, UniProt Q99571); experiment: Assay A: human P2X4 receptor cell line, FLIPR calcium assay (Fluo-8, agonist Bz-ATP at EC80); format: cell-based; set-up: host or cells: HEK 293 (recombinant, constitutively expressing; with mitochondrial photina in Assay B); settings: HEK human P2X4 cells, Fluo-8 FLIPR; for IC50: Bz-ATP at EC80, average values; for Emax: percentage of maximal inhibition, read-out: human P2X4 Assay A avg Efficacy
T1 sequence (Q99571 1-388): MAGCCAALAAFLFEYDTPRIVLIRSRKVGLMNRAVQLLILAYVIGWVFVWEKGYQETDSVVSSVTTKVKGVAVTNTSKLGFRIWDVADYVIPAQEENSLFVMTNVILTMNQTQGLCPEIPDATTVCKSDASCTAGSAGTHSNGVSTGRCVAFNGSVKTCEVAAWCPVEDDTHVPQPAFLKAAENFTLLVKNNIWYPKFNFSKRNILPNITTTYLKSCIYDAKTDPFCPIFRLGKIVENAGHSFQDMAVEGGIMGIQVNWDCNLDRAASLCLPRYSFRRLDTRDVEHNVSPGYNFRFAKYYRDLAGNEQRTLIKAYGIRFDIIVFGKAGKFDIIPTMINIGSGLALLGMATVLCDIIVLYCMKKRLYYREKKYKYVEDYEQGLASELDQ
Protocol: A fluorescent imaging plate reader (FLEX/FLIPR station; Molecular Devices) was used to monitor intracellular calcium levels using the calcium-chelating dye Fluo-8 (Molecular Probes). […] Cells expressing purinergic receptors human P2X4 (HEK human P2X4: PerkinElmer, Product No.: AX-015-PCF) were plated at a density of 20,000 cells/well in poly-D-lysine-coated 384-well plates approximately 20 hours before beginning the assay. On the day of the assay, the medium was removed and 30 μl of dye buffer (Hank's balanced salt solution, 10 mM HEPES, 1.8 mM CaCl2), 1 mM MgCl2, 2 mM probenecid, 5 mM D-glucose monohydrate, 5 μM Fluo-8, pH=7.4) was added for 30 min at […] and 5% CO2. The antagonist in probenecid buffer (Hank's balanced salt solution, 10 mM HEPES, 1.8 mM CaCl2, 1 mM MgCl2, 2 mM probenecid, 5 mM D-glucose monohydrate, pH=7.4) was added in a volume of 10 μl and allowed to incubate for 30 min at room temperature. The final assay DMSO concentration is 0.5%. The agonist, Bz-ATP, is added in a volume of 10 μl at a concentration representing the EC80 value. The fluorescence was measured for an interval of 120 sec at 2 sec intervals and analyzed based on the increase in peak relative fluorescence units (RFU) compared to the basal fluorescence. Peak fluorescence was used to determine the response to agonist obtained at each concentration of antagonist by the following equation:
% Response=100*(RFU(drug)−RFU(control))/(RFU(DMSO)−RFU(control))
The compounds were tested in triplicates per plate and mean values were plotted in Excel XLFit to determine IC50 values, percentage of maximal inhibition and the Hill coefficients.

P2X4 [2] = target: T1, P2X4; experiment: Assay B: human P2X4 receptor cell line, mitochondrial photina luminescence (agonist Bz-ATP at EC50); format: cell-based; set-up: host or cells: HEK 293 (recombinant, constitutively expressing; with mitochondrial photina in Assay B); settings: HEK human P2X4 cell line, photina luminescence, agonist Bz-ATP at EC50, average; for Emax: read-out: human P2X4 Assay B avg Efficacy
In short: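 Bz-ATP at its EC50 activates human P2X4 stably expressed in a cell line that also carries the calcium-sensitive photoprotein mitochondrial photina (coelenterazine cofactor). Light emitted on calcium influx is measured straight away in a luminometer. Reduced luminescence indicates antagonism.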

`NS(=O)(=O)c1cc(NC(=O)Cc2ccccc2Cl)ccc1Oc1cccc(OC(F)F)c1` [Example 024, 2-(2-Chlorophenyl)-N-{4-[3-(difluoromethoxy)phenoxy]-3-sulfamoylphenyl}acetamide] was tested, and the IC50 (P2X4 [1]) was 0.114 µM, the Emax (P2X4 [1]) was 82% and the IC50 (P2X4 [2]) was 0.032 µM. The Emax (P2X4 [2]) was 57%.

With `NS(=O)(=O)c1cc(NC(=O)Cc2ccccc2Cl)ccc1Oc1cccc(N2CCOCC2)c1` [Example 026, 2-(2-Chlorophenyl)-N-{4-[3-(morpholin-4-yl)phenoxy]-3-sulfamoylphenyl}acetamide] the IC50 (P2X4 [1]) was 0.021 µM, the Emax (P2X4 [1]) was 95% and the IC50 (P2X4 [2]) was 0.082 µM. For the same compound, the Emax (P2X4 [2]) was 71%.

Compound `NS(=O)(=O)c1cc(NC(=O)Cc2ccccc2Cl)ccc1Oc1cccnc1` [Example 028, 2-(2-Chlorophenyl)-N-[4-(pyridin-3-yloxy)-3-sulfamoylphenyl]acetamide] has an Emax (P2X4 [1]) of 75% and an Emax (P2X4 [2]) of 79%.

Work on `NS(=O)(=O)c1cc(NC(=O)Cc2ccccc2Cl)ccc1Oc1cccc(C(F)F)c1` [Example 031, 2-(2-Chlorophenyl)-N-{4-[3-(difluoromethyl)phenoxy]-3-sulfamoylphenyl}acetamide] yielded an IC50 (P2X4 [1]) of 0.024 µM, an Emax (P2X4 [1]) of 76% and an IC50 (P2X4 [2]) of 0.122 µM. It also gave an Emax (P2X4 [2]) of 71%.

In the case of `COc1ccccc1Oc1ccc(NC(=O)Cc2ccccc2Cl)cc1S(N)(=O)=O` [Example 032, 2-(2-Chlorophenyl)-N-[4-(2-methoxyphenoxy)-3-sulfamoylphenyl]acetamide], the IC50 (P2X4 [1]) is reported as 0.014 µM, the Emax (P2X4 [1]) is reported as 100% and the IC50 (P2X4 [2]) is reported as 0.057 µM. The Emax (P2X4 [2]) was 82%.

For `NS(=O)(=O)c1cc(NC(=O)Cc2ccccc2Cl)ccc1Oc1cccc(C(=O)NC2CC2)c1` [Example 037, 3-(4-{[(2-Chlorophenyl)acetyl]amino}-2-sulfamoylphenoxy)-N-cyclopropylbenzamide], the IC50 (P2X4 [1]) was 0.063 µM, the Emax (P2X4 [1]) was 70% and the IC50 (P2X4 [2]) was 0.188 µM. It also gave an Emax (P2X4 [2]) of 56%.

Work on `NS(=O)(=O)c1cc(NC(=O)Cc2ccccc2Cl)ccc1Oc1cc(Cl)ccn1` [Example 039, 2-(2-chlorophenyl)-N-{4-[(4-chloropyridin-2-yl)oxy]-3-sulfamoylphenyl}acetamide] yielded an IC50 (P2X4 [1]) of 0.007 µM, an Emax (P2X4 [1]) of 89% and an IC50 (P2X4 [2]) of 0.14 µM. It also gave an Emax (P2X4 [2]) of 65%.

`NS(=O)(=O)c1cc(NC(=O)Cc2ccccc2Cl)ccc1Oc1ccc(N2CCCC2=O)cc1` [Example 043, 2-(2-Chlorophenyl)-N-{4-[4-(2-oxopyrrolidin-1-yl)phenoxy]-3-sulfamoylphenyl}acetamide] gave an IC50 (P2X4 [1]) of 0.515 µM, an Emax (P2X4 [1]) of 85% and an IC50 (P2X4 [2]) of 0.671 µM. For the same compound, the Emax (P2X4 [2]) was 68%.

Work on `N#Cc1cc(Oc2ccc(NC(=O)Cc3ccccc3Cl)cc2S(N)(=O)=O)ccc1F` [Example 047, 2-(2-Chlorophenyl)-N-[4-(3-cyano-4-fluorophenoxy)-3-sulfamoylphenyl]acetamide] yielded an IC50 (P2X4 [1]) of 0.007 µM, an Emax (P2X4 [1]) of 69% and an IC50 (P2X4 [2]) of 0.862 µM. It also gave an Emax (P2X4 [2]) of 57%.

`NS(=O)(=O)c1cc(NC(=O)Cc2ccccc2Cl)ccc1Oc1cccc(N2CCCC2=O)c1` [Example 050, 2-(2-Chlorophenyl)-N-{4-[3-(2-oxopyrrolidin-1-yl)phenoxy]-3-sulfamoylphenyl}acetamide] showed an IC50 (P2X4 [1]) of 0.005 µM, an Emax (P2X4 [1]) of 94% and an IC50 (P2X4 [2]) of 0.112 µM. The Emax (P2X4 [2]) was 87%.

For `NS(=O)(=O)c1cc(NC(=O)Cc2ccccc2Cl)ccc1Oc1cccc(N2CCOC2=O)c1` [Example 051, 2-(2-Chlorophenyl)-N-{4-[3-(2-oxo-1,3-oxazolidin-3-yl)phenoxy]-3-sulfamoylphenyl}acetamide], the IC50 (P2X4 [1]) was 0.02 µM, the Emax (P2X4 [1]) was 87% and the IC50 (P2X4 [2]) was 0.124 µM. It also gave an Emax (P2X4 [2]) of 83%.

`NS(=O)(=O)c1cc(NC(=O)Cc2ccccc2Cl)ccc1Oc1cccc(C(=O)N2CCOCC2)c1` [Example 052, 2-(2-Chlorophenyl)-N-{4-[3-(morpholin-4-ylcarbonyl)phenoxy]-3-sulfamoylphenyl}acetamide] gave an Emax (P2X4 [1]) of 85% and an Emax (P2X4 [2]) of 66%.

— patent US20180338980A1, “AROMATIC SULFONAMIDE DERIVATIVES” (BAYER PHARMA AKTIENGESELLSCHAFT, priority 2015, published 2018)
